The text below walks through data of ChEMBL document CHEMBL5303711, “ECBD screening data for assay EOS300108” (2023).

The source made the active and inactive calls. The rule behind the calls is not given here.

The data set is described as follows: Cytotoxicity activity against human HepG2 cells assessed by CellTiter-Glo luminescent cell viability assay. It is filed as toxicity, cell-based. Further details: assay stage confirmatory assay, source tissue liver. As to conditions: HepG2 cells, read-out: IC50 relative. (In general: ATP-based viability assays read luminescence as a measure of living cells.)
`COc1cc(/C=C2\CCCN([C@@H](C)c3ccc(F)cc3)C2=O)ccc1-n1cnc(C)c1`: the CC50 is 12.8 µM (active).
Under `C=CC(=O)Nc1cccc(Oc2nc(Nc3ccc(N4CCN(C)CC4)cc3OC)ncc2Cl)c1` stands 2.2 µM (active).
Under `c1ccc(CCCN2CCN(CCOC(c3ccccc3)c3ccccc3)CC2)cc1` stands 9.1 µM (active).
Turning to `Cc1ccc2c(c1)C1(CCN(CCc3nc(-c4ccccc4)oc3C)CC1)OC(=O)N2`, the CC50 is 11.2 µM (active).
To `CNc1nc(-c2ccc3c(N)n[nH]c3c2)cc(N2C[C@@H](C(=O)NC3CCCCC3)CC[C@H]2C)n1` belongs 50 µM (inactive); to `O=c1cc(N2CCOCC2)oc2c(-c3cccc4c3sc3ccccc34)cccc12`, 7.1 µM (active).
In the case of `COc1cc2c(cc1-c1c(C)noc1C)ncc1[nH]c(=O)n([C@H](C)c3ccccn3)c12`, the CC50 was 1.4 µM (active).
In the case of `COc1ccc(N(C(=O)Oc2c(C)cccc2C)c2ccnc(Nc3ccc(N4CCN(C)CC4)cc3)n2)c(OC)c1`, the CC50 was 3.3 µM (active).
Under `Cc1cc(NC(=O)c2cccc(NC(=O)/C=C/CN(C)C)c2)ccc1Nc1nccc(-c2cccnc2)n1` stands 3.8 µM (active); under `Nc1nc(NCCNc2ncc(-n3ccnc3)c(-c3ccc(Cl)cc3Cl)n2)ccc1[N+](=O)[O-]`, 50 µM (inactive); under `COc1ccc(C[C@H](NC(=O)[C@H](C)NC(=O)CN2CCOCC2)C(=O)N[C@@H](Cc2ccccc2)C(=O)[C@@]2(C)CO2)cc1`, 0.5 µM (active).
Turning to `COc1cc(N2CCC(N(C)C)CC2)ccc1Nc1ncc(Cl)c(Nc2ccccc2P(C)(C)=O)n1`, the CC50 was 2.6 µM (active).
On to `COc1cc(N2CCN(C)CC2)ccc1Nc1nccc(-c2cn(C)c3cnccc23)n1`, for which the CC50 is 4.4 µM (active).
Under `C[C@@H]1CCCN1CCc1cc2cc(-c3ccc(C#N)cc3)ccc2o1` stands 6.1 µM (active).
To `O=C(Nc1ccc2[nH]nc(-c3ccncc3)c2c1)[C@@H]1CCN(CC(=O)N2CCN(c3ccc(-c4ncccn4)cc3)CC2)C1` belongs 0.1 µM (active); to `CC(C)c1cc2c(N3CCN(C4=NCC(C)(C)S4)CC3)ncnc2s1`, 10 µM (active).
Regarding `CCn1cc(-c2cccc(C(F)(F)F)c2)c2sc(C(=N)NC3CCS(=O)(=O)CC3)cc2c1=O`, the CC50 was 11.1 µM (active).
Under `CCOC(=O)c1cnn(-c2ccc(NC(=O)C(Cl)=C(Cl)Cl)cc2)c1C(F)(F)F` stands 1 µM (active); under `COc1cc(N2CCC(N)CC2)ccc1Nc1ncc(Cl)c(-c2c[nH]c3ccccc23)n1`, 4.2 µM (active).
Consider `CC[S+]([O-])c1nc(-c2cccc(OCc3ccccc3)c2)cc(C(F)(F)F)n1` (stereo not given), for which the CC50 was 5.3 µM (active).
For the compound `CC(C)Oc1cc(Nc2nc(N[C@@H](C)c3ccc(F)cn3)ncc2Cl)n[nH]1`, the CC50 was 2.6 µM (active).
To `Cc1ccc2nc(NCCN)c3ncc(C)n3c2c1` belongs 1.9 µM (active).
In the case of `O=C1NCCc2[nH]c(-c3ccncc3)cc21`, the CC50 is 0.9 µM (active).
As to `O=C(O)c1ccc2c(c1)nc(Nc1cccc(Cl)c1)c1ccncc12`, the CC50 is 5 µM (active).
As to `CC(C)(C)NC(=O)[C@@H]1C[C@@H]2CCCC[C@@H]2CN1CC(O)[C@H](Cc1ccccc1)NC(=O)[C@@H](CC(N)=O)NC(=O)c1ccc2ccccc2n1` (stereo not given in full), the CC50 is 15.7 µM (inactive).
Turning to `CN(C)C[C@@H]1CCn2cc(c3ccccc32)C2=C(C(=O)NC2=O)c2cn(c3ccccc23)CCO1`, the CC50 was 3 µM (active).
`Cc1c(NC(=O)OC[C@@H]2COCCN2)cn2ncnc(Nc3ccc4c(cnn4Cc4cccc(F)c4)c3)c12`: the CC50 was 9 µM (active).
For `CC(C)N(CCC(=O)c1ccc2ccccc2c1)Cc1ccccc1`, the CC50 is 12.9 µM (active).
With `Cc1ccc([N+](=O)[O-])cc1S(=O)(=O)N(C)/N=C/c1cnc2ccc(Br)cn12`, the CC50 was < 0.1 µM (active).
With `NS(=O)(=O)c1ccc(S(=O)(=O)Nc2cccc3c(Cl)c[nH]c23)cc1`, the CC50 was 13.6 µM (inactive).
